Test results as given in the supplement of paper PMC10307832.

Tests used:
Assay in all cases: relative viability (nuclei count vs DMSO), 5 days (fraction); higher = more cells survive
[1] = compound: COc1cc(-c2nn([C@H]3CC[C@H](N4CCN(C(C)=O)CC4)CC3)c3ncnc(N)c23)ccc1NC(=O)c1cc2ccccc2n1C + Cc1nc(NC(=O)N2CCC[C@H]2C(N)=O)sc1-c1ccnc(C(C)(C)C(F)(F)F)c1 [Alpelisib] (partner 2 µM)
In short: (§1)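 Lung cancer cell lines were seeded in 1536-well plates and dosed by pin tool the next day, with either a single drug or a fixed anchor-drug dose combined with five library-drug doses (not always all listed) spaced in √10 steps. Five days later, one step fixed the cells and stained their nuclei (final 0.05% Triton X-100, 1% formaldehyde, 1 ug/ml Hoechst), and nuclei were counted on 4× images. Relative viability is the nuclei count in treated wells divided by the count in vehicle wells, and each value is the median of duplicate plates.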

[2] = compound: CO[C@@H]1[C@H](N(C)C(=O)c2ccccc2)C[C@H]2O[C@]1(C)n1c3ccccc3c3c4c(c5c6ccccc6n2c5c31)C(=O)NC4 [Midostaurin] + CC(=O)c1c(C)c2cnc(Nc3ccc(N4CCNCC4)cn3)nc2n(C2CCCC2)c1=O [Palbociclib] (partner 0.5 µM)
In short: as §1

[3] = compound: COc1cc(-c2nn([C@H]3CC[C@H](N4CCN(C(C)=O)CC4)CC3)c3ncnc(N)c23)ccc1NC(=O)c1cc2ccccc2n1C + O=C(CCCCCCC(=O)Nc1ccccc1)NO [Vorinostat] (partner 1 µM)
In short: as §1

[4] = compound: COc1cc(-c2nn([C@H]3CC[C@H](N4CCN(C(C)=O)CC4)CC3)c3ncnc(N)c23)ccc1NC(=O)c1cc2ccccc2n1C + CS(=O)(=O)CCNCc1ccc(-c2ccc3ncnc(Nc4ccc(OCc5cccc(F)c5)c(Cl)c4)c3c2)o1 [Lapatinib] (partner 2 µM)
In short: as §1

[5] = compound: COc1cc(-c2nn([C@H]3CC[C@H](N4CCN(C(C)=O)CC4)CC3)c3ncnc(N)c23)ccc1NC(=O)c1cc2ccccc2n1C + Nc1ncn([C@H]2C[C@H](O)[C@@H](CO)O2)c(=O)n1 [Decitabine] (partner 2 µM)
In short: as §1

Row | Cell Line | relative viability ([1]; first compound 0.0128 µM) | relative viability ([1]; first compound 0.04048 µM) | relative viability ([1]; first compound 0.128 µM) | relative viability ([1]; first compound 1.28 µM) | relative viability ([2]; first compound 0.01 µM) | relative viability ([2]; first compound 0.03162 µM) | relative viability ([2]; first compound 0.1 µM) | relative viability ([2]; first compound 0.3162 µM) | relative viability ([3]; first compound 0.0128 µM) | relative viability ([3]; first compound 0.128 µM) | relative viability ([3]; first compound 1.28 µM) | relative viability ([4]; first compound 0.0128 µM) | relative viability ([4]; first compound 0.04048 µM) | relative viability ([4]; first compound 0.128 µM) | relative viability ([4]; first compound 1.28 µM) | relative viability ([5]; first compound 0.0128 µM) | relative viability ([5]; first compound 0.128 µM) | relative viability ([5]; first compound 1.28 µM) | relative viability ([3]; first compound 0.04048 µM) | relative viability ([5]; first compound 0.04048 µM)
1 | NCI-H2087 | 1.29 | 0.781 | 1.27 | 1.2 | 0.213 | 0.232 | 0.268 | 0.27 | 0.745 | 0.798 | 0.987 | 1.05 | 0.659 | 0.93 | 1.17 | 0.331 | 0.198 | 0.225 |  | 
2 | LC-2-ad | 1.01 | 0.931 | 0.872 | 0.699 | 0.482 | 0.53 | 0.536 | 0.566 | 0.857 | 0.703 | 0.703 | 0.988 | 0.817 | 0.847 | 0.961 | 0.818 | 0.723 | 0.854 | 0.742 | 0.778
3 | NCI-H1915 | 1.13 | 1.07 | 1.02 | 0.857 | 0.451 | 0.523 | 0.531 | 0.524 | 0.651 | 0.507 | 0.44 | 1.08 | 1.03 | 0.992 | 1.01 | 0.293 | 0.264 | 0.262 | 0.577 | 0.244
4 | NCI-H1793 | 0.734 | 0.682 | 0.595 | 0.442 | 0.305 | 0.349 | 0.354 | 0.342 | 0.981 | 0.794 | 0.528 | 1.01 | 0.501 | 0.434 | 0.621 | 0.55 | 0.509 | 0.364 | 0.658 | 0.468
5 | NCI-H2023 | 0.607 | 0.651 | 0.546 | 0.521 | 0.482 | 0.428 | 0.341 | 0.192 | 0.821 | 0.646 | 0.695 | 0.856 | 0.782 | 0.923 | 0.845 | 0.219 | 0.218 | 0.228 | 0.631 | 0.219
6 | COR-L 105 | 1.13 | 1.09 | 1.08 | 0.531 | 0.414 | 0.416 | 0.396 | 0.4 | 0.75 | 0.907 | 0.584 | 0.3 | 0.327 | 0.352 | 0.31 | 0.645 | 0.653 | 0.559 | 1.04 | 0.724
7 | RERF-LC-KJ | 0.811 | 0.717 | 0.555 | 0.654 | 0.993 | 1.08 | 1.13 | 1.02 | 0.754 | 0.75 | 0.619 | 0.911 | 0.915 | 0.849 | 0.857 | 0.716 | 0.737 | 0.845 | 0.737 | 0.759
8 | LXF-289 | 1.1 | 1.03 | 1.04 | 0.958 | 0.625 | 0.615 | 0.645 | 0.642 | 0.898 | 0.734 | 0.794 | 1.01 | 0.86 | 0.876 | 1.02 | 0.419 | 0.369 | 0.362 | 0.795 | 0.368
